Data published in patent US20100099614A1, “Antimicrobial Peptides and Methods of Use” (priority 2008, published 2010).
In brackets after ≈: the same amount, converted by molar mass. Entries after “also recorded” stand apart in the source; their conditions may differ. Square brackets hold non-standard residues; d marks the D form. Ends that are not written are not given here. Peptide text beside a SMILES is read from it.

Assays:
human erythrocytes = assay: Hemolytic activity (MHC), Protocol A; format: cell-based
Procedure: Hemoglobin release was determined spectrophotometrically at 562 nm.
In some experiments the hemolytic titer was determined as the highest 2-fold dilution of peptide that caused hemoglobin release.

Gram-negative bacteria = assay: Antibacterial activity (MIC), microtiter dilution; format: cell-based; settings: for MIC: against Gram-negative bacteria
Procedure: MICs were determined by a standard microtiter dilution method in Mueller Hinton Broth (MHB). Serial dilutions of the 10× compound were added to the microtiter plates in a volume of 10 μL followed by 90 μL of bacteria for an inoculum of 5×10^5 colony-forming units (CFU)/mL. The plates were incubated at 37° C. for 24 h, and the MICs were determined as the lowest peptide concentration that inhibited growth. […]
Alternatively; minimal inhibitory concentrations were determined using a standard microtiter dilution method in a Mueller-Hinton (MH) medium. Briefly, cells were grown overnight at 37° C. in MH broth and diluted in the same medium. Serial dilutions of the peptides were added to the microtiter plates in a volume of 100 μl followed by 10 μl of bacteria for an initial cell concentration of 1×10^5 CFU/ml. Plates were incubated at 37° C. for 24 hours and MICs determined as the lowest peptide concentration that inhibited growth.

Gram-positive bacteria = settings: gram-positive bacteria, geometric mean MIC
[1] = Peptide hydrophobicity by RP-HPLC retention; format: physicochemical; settings: 80° C.; for change in hydrophobicity (RP-HPLC retention) relative to PVL: polar face substitution
Procedure: Peptide Synthesis and Purification—Syntheses of the peptides were carried out by solid-phase peptide synthesis using t-butyloxycarbonyl chemistry and MBHA (4-methylbenzhydrylamine) resin (0.97 mmol/g), followed by cleavage of the peptide from the resin as described previously (117-119). However, it is understood in the art that there are other suitable instruments and methods for automated or manual peptide synthesis that could be employed to produce the peptides described herein. Peptide purification was performed by reversed-phase high-performance liquid chromatography (RP-HPLC) on a Zorbax 300 SB-C8 column (250×9.4 mm I.D.; 6.5 μm particle size, 300 Å pore size; Agilent Technologies, Little Falls, Del.) with a linear AB gradient (0.1% acetonitrile/min) at a flow rate of 2 mL/min, where eluent A was 0.2% aqueous trifluoroacetic acid (TFA), pH 2, and eluent B was 0.2% TFA in acetonitrile, where the shallow 0.1% acetonitrile/min gradient started 12% below the acetonitrile concentration required to elute the peptide on injection of analytical sample using a gradient of 1% acetonitrile/min (113). The purity of the peptides was verified by analytical RP-HPLC as described below and further characterized by mass spectrometry and amino acid analysis. Crude and purified peptides were analyzed on an Agilent 1100 series liquid chromatograph. Runs were performed on a Zorbax 300 SB-C8 column (150×2.1 mm I.D.; 5 μm particle size, 300 Å pore size) from Agilent Technologies using a linear AB gradient (1% acetonitrile/min) and a flow rate of 0.25 mL/min, where eluent A was 0.2% aqueous TFA, pH 2, and eluent B was 0.2% TFA in acetonitrile.
Analytical RP-HPLC of Peptides—Peptides were analyzed on an Agilent 1100 series liquid chromatograph (Little Falls, Del.). Runs were performed on a Zorbax 300 SB-C8 column (150×2.1 mm I.D.; 5 μm particle size, 300 Å pore size) from Agilent Technologies using linear AB gradient (1% acetonitrile/min) and a flow rate of 0.25 ml/min, where solvent A was 0.05% aqueous TFA, pH 2 and solvent B was 0.05% TFA in acetonitrile. Temperature profiling analyses were performed in 3° C. increments, from 5° C. to 80° C.

For `CC[C@H](C)[C@H](NC(=O)[C@H](C)NC(=O)[C@H](CCCCN)NC(=O)[C@H](CC(C)C)NC(=O)[C@H](C)NC(=O)[C@@H](NC(=O)[C@H](Cc1c[nH]cn1)NC(=O)[C@H](CC(C)C)NC(=O)[C@@H](NC(=O)[C@@H](NC(=O)[C@H](CCCCN)NC(=O)[C@@H](C)NC(=O)[C@H](C)NC(=O)[C@H](CO)NC(=O)[C@H](CCCCN)NC(=O)[C@H](Cc1ccccc1)NC(=O)[C@@H](NC(=O)[C@H](CCCCN)NC(=O)[C@H](CC(C)C)NC(=O)[C@H](Cc1ccccc1)NC(=O)[C@H](CO)NC(=O)[C@H](CCCCN)NC(=O)[C@H](Cc1c[nH]c2ccccc12)NC(=O)[C@H](CCCCN)NC(C)=O)[C@@H](C)O)[C@@H](C)O)C(C)C)[C@@H](C)O)C(=O)N[C@@H](CO)C(=O)N[C@@H](CO)C(N)=O` [NAD] (HELM PEPTIDE1{[ac].K.W.K.S.F.L.K.T.F.K.S.A.[dA].K.T.V.L.H.T.A.L.K.A.I.S.S.[am]}$$$$V2.0), the “fold decrease in hemolytic activity relative to L-diastereomer” value (human erythrocytes) was 8 fold and the “minimal hemolytic concentration (MHC)” value (human erythrocytes; red cells of human, 12 h) was 250 µg/mL.

For `CC[C@H](C)[C@H](NC(=O)[C@H](C)NC(=O)[C@H](CCCCN)NC(=O)[C@H](CC(C)C)NC(=O)[C@H](C)NC(=O)[C@@H](NC(=O)[C@H](Cc1cnc[nH]1)NC(=O)[C@H](CC(C)C)NC(=O)[C@@H](NC(=O)[C@@H](NC(=O)[C@H](CCCCN)NC(=O)[C@H](CCCCN)NC(=O)[C@H](C)NC(=O)[C@H](CO)NC(=O)[C@H](CCCCN)NC(=O)[C@H](Cc1ccccc1)NC(=O)[C@@H](NC(=O)[C@H](CCCCN)NC(=O)[C@H](CC(C)C)NC(=O)[C@H](Cc1ccccc1)NC(=O)[C@H](CO)NC(=O)[C@H](CCCCN)NC(=O)[C@H](Cc1c[nH]c2ccccc12)NC(=O)[C@H](CCCCN)NC(C)=O)[C@@H](C)O)[C@@H](C)O)C(C)C)[C@@H](C)O)C(=O)N[C@@H](CO)C(=O)N[C@@H](CO)C(N)=O` [NKL], the “fold decrease in hemolytic activity relative to V681” value (human erythrocytes) was greater than 32 fold, the “minimal hemolytic concentration (MHC)” value (human erythrocytes; human erythrocytes) was “undetectable level; also recorded: no detectable hemolytic activity” and the MIC (Gram-negative bacteria) was 3.1 µg/mL (≈ 1.04 µM).

In the case of `CC[C@H](C)[C@H](NC(=O)[C@H](C)NC(=O)[C@H](CCCCN)NC(=O)[C@H](CC(C)C)NC(=O)[C@H](C)NC(=O)[C@@H](NC(=O)[C@H](Cc1c[nH]cn1)NC(=O)[C@H](CC(C)C)NC(=O)[C@@H](NC(=O)[C@@H](NC(=O)[C@H](CCCCN)NC(=O)[C@@H](NC(=O)[C@H](C)NC(=O)[C@@H](CO)NC(=O)[C@H](CCCCN)NC(=O)[C@H](Cc1ccccc1)NC(=O)[C@@H](NC(=O)[C@H](CCCCN)NC(=O)[C@H](CC(C)C)NC(=O)[C@H](Cc1ccccc1)NC(=O)[C@H](CO)NC(=O)[C@H](CCCCN)NC(=O)[C@H](Cc1c[nH]c2ccccc12)NC(=O)[C@H](CCCCN)NC(C)=O)[C@@H](C)O)C(C)C)[C@@H](C)O)C(C)C)[C@@H](C)O)C(=O)N[C@@H](CO)C(=O)N[C@@H](CO)C(N)=O` [PSD] (HELM PEPTIDE1{[ac].K.W.K.S.F.L.K.T.F.K.[dS].A.V.K.T.V.L.H.T.A.L.K.A.I.S.S.[am]}$$$$V2.0; N-terminus and C-terminus assumed), the “improvement in antimicrobial activity compared to V681” value (Gram-positive bacteria) is reported as 2.7 fold.

For `CC[C@H](C)[C@H](NC(=O)[C@H](C)NC(=O)[C@H](CCCCN)NC(=O)[C@H](CC(C)C)NC(=O)[C@H](C)NC(=O)[C@@H](NC(=O)[C@H](Cc1c[nH]cn1)NC(=O)[C@H](CC(C)C)NC(=O)[C@@H](NC(=O)[C@@H](NC(=O)[C@H](CCCCN)NC(=O)[C@@H](NC(=O)[C@H](C)NC(=O)[C@H](NC(=O)[C@H](CCCCN)NC(=O)[C@H](Cc1ccccc1)NC(=O)[C@@H](NC(=O)[C@H](CCCCN)NC(=O)[C@H](CC(C)C)NC(=O)[C@H](Cc1ccccc1)NC(=O)[C@H](CO)NC(=O)[C@H](CCCCN)NC(=O)[C@H](Cc1c[nH]c2ccccc12)NC(=O)[C@H](CCCCN)NC(C)=O)[C@@H](C)O)C(C)C)C(C)C)[C@@H](C)O)C(C)C)[C@@H](C)O)C(=O)N[C@@H](CO)C(=O)N[C@@H](CO)C(N)=O` [PVD] (HELM PEPTIDE1{[ac].K.W.K.S.F.L.K.T.F.K.[dV].A.V.K.T.V.L.H.T.A.L.K.A.I.S.S.[am]}$$$$V2.0), the “fold decrease in hemolytic activity relative to L-diastereomer” value (human erythrocytes) was 16 fold and the “minimal hemolytic concentration (MHC)” value (human erythrocytes; red cells of human, 12 h) was 125 µg/mL.

With Ac-KWKSFLKTFKSAAKTVLHTALKAISS-NH2 [NAL] the “minimal hemolytic concentration (MHC)” value (human erythrocytes; red cells of human, 12 h) was 31.2 µg/mL.

For Ac-KWKSFLKTFKSALKTVLHTALKAISS-NH2 [NLL], the “minimal hemolytic concentration (MHC)” value (human erythrocytes; red cells of human, 12 h) was 7.8 µg/mL and the MIC (Gram-negative bacteria) was 12.7 µg/mL.

For Ac-KWKSFLKTFKVAVKTVLHTALKAISS-NH2 [PVL], the “minimal hemolytic concentration (MHC)” value (human erythrocytes; red cells of human, 12 h) was 7.8 µg/mL.

With “NSL: V681 analog, L-Ser at position 13 (non-polar face) (KWKSFLKTFKSASKTVLHTALKAISS)” the “change in hydrophobicity (RP-HPLC retention) relative to NVL” value ([1]; non-polar face substitution) was -8.21 min.

In the case of “PAL: V681 analog, L-Ala at position 11 (polar face) (KWKSFLKTFKAAVKTVLHTALKAISS)”, the “change in hydrophobicity (RP-HPLC retention) relative to PVL” value [1] is reported as “+0.45 min”.

For “PKD: V681 analog, D-Lys at position 11 (KWKSFLKTFK[dK]AVKTVLHTALKAISS-NH2)”, the “improvement on the average MIC value compared to V681” value (Gram-negative bacteria; geometric mean of 6 gram-negative strains) was 3.4 fold.

In the case of “PKL: V681 analog, L-Lys at position 11 (polar face) (KWKSFLKTFKKAVKTVLHTALKAISS)”, the “change in hydrophobicity (RP-HPLC retention) relative to PVL” value [1] is reported as -2.29 min.
